Data set [1] has as its system ocular tension of Japanese white rabbits. As to the kind of experiment: Test Example 1: effect of lowering ocular tension after instillation in rabbit eyes. The format is in vivo. The settings on record: 0.1% solution, 50 μL instilled to one eye; for AUC (area under the curve of time versus change in difference in ocular tension, treated eye vs eye drop base eye): up to 480 min. The protocol:
Each of the mentioned compounds was dissolved in saline containing polysorbate 80 (hereinafter the saline will be referred to as “eye drop base A”) or in a borate buffer (pH 7.0) containing polysorbate 80 (hereinafter the solution will be referred to as “eye drop base B”) (polysorbate 80 content of each base: 5 mg/mL).
Japanese white rabbits (male; Kitayama Labes Co., Ltd.) (weight: 2.7–3.9 kg) were employed in the test for measuring ocular tension. The rabbits were retained in a box-type fixation apparatus during the test.
The ocular tension of each rabbit was measured by use of a Model 30 Classic Pneumatonometer (product of Mentor) without anesthesia. Before the ocular tension was measured, 0.4% oxybuprocaine hydrochloride (Benoxil 0.4% eye drop solution, product of Santen Pharmaceutical Co., Ltd.) was instilled into the eyes of each rabbit, to thereby anesthetize the surface of the cornea. The ocular tension of each rabbit was measured several times at predetermined intervals. Three measurements of ocular tension, as measured when a constant value was reached, were averaged, and the average value was employed as representing the ocular tension.
A 0.1% solution of each test compound (50 μL) was instilled to one eye of each of the respective rabbits, and simultaneously the eye drop base (50 μL) was instilled to the other eye. The ocular tensions of both eyes were measured 60 minutes before instillation of the test compound; 0 minute immediately before instillation; and 30, 60, 90, 120, 150, 180, 240, 300, 360, 420, and 480 minutes after instillation. Four to six rabbits were employed for each test compound. For control, each eye drop base was instilled to both eyes of rabbits, and the ocular tension thereof was measured in a manner similar to that described above.
For each test compound, the effect of lowering ocular tension was evaluated on the basis of the following values: the area under the curve of time versus change in difference between the ocular tension of the eye to which the test compound was instilled and that of the eye to which the eye drop base was instilled (hereinafter the area will be abbreviated as AUC (mmHg•min)); and the maximum value of difference between the ocular tension of the eye to which the test compound was instilled and that of the eye to which the eye drop base was instilled (hereinafter the value will be abbreviated as Emax (mmHg)).

Data set [2] can be described thus: Test Example 2: saturation solubility in isotonic borate buffer (HPLC). The settings on record: for solubility at 6 h: isotonic borate buffer, 20 °C, pH 7, aqueous buffer, thermodynamic from solid.
Method: (§1) Each of the test compounds was dispersed in an isotonic borate buffer (pH 7.0). The resultant mixture was shaken at 20° C. for 6 hours and then centrifuged. The concentration of the test compound in the supernatant was measured through HPLC for calculation of saturation solubility of the compound.
(§2) Detector: UV absorptiometer (wavelength: 270 nm)
(§3) Column: ODS column (inner diameter 4.6 mm, length 15 cm)
(§4) Mobile phase: An acetonitrile/triethylammonium acetate buffer (pH 7) mixture
Another data set deals with optic nerve failure. Nature of the data set: Model of retina failure induced through reperfusion after transient ischemia in rat. It counts as in vivo.
The subject of the next data set is blood flow in the retina. As to the kind of experiment: Effects on blood vessel diameter and blood flow in the retina of rabbits. The format is in vivo.
For data set [3] the following is noted: pH 7.
Method: as §1, §2, §3, §4
[4] abbreviates: eye drop base A (saline with polysorbate 80).
Setting [5] is: eye drop base B (borate buffer pH 7.0 with polysorbate 80).

≈ marks a conversion by molar mass, not a printed value. Where two headings read alike, the source gives them in different places.

As to `CCCCC#Cc1nc(N)c2ncn([C@@H]3O[C@H](C(=O)NC)[C@@H](O)[C@H]3O)c2n1` [Referential Compound 6, 2-(1-hexyn-1-yl)adenosine-4′-methylcarboxamide], in data set [1] (setting [4]), the “Emax (maximum difference in ocular tension, treated eye vs eye drop base eye)” value is given as −6.0 mmHg and the “AUC (area under the curve of time versus change in difference in ocular tension, treated eye vs eye drop base eye)” value is −1838.3 mmHg · min. The compound further had a Saturation solubility in data set [2] (isotonic borate buffer pH 7.0, shaken at 20° C. for 6 hours) of 500 µg/mL.

Consider `N#CCCCCCC#Cc1nc(N)c2ncn([C@@H]3O[C@H](CO)[C@@H](O)[C@H]3O)c2n1` [Referential Compound 2, 2-(7-cyano-1-heptyn-1-yl)adenosine], for which, in data set [1] (setting [5]), the “Emax (maximum difference in ocular tension, treated eye vs eye drop base eye)” value is on record as −2.6 mmHg and the “AUC (area under the curve of time versus change in difference in ocular tension, treated eye vs eye drop base eye)” value is reported as −844.5 mmHg · min.

As to `N#CCCCCC#Cc1nc(N)c2ncn([C@@H]3O[C@H](CO)[C@@H](O)[C@H]3O)c2n1` [Compound 1, 2-(6-cyano-1-hexyn-1-yl)adenosine], the melting point (commonly the temperature of the solid-liquid transition) was in the range of 91 to 94 °C. Also, in the data set on optic nerve failure, the “effects of protecting optic nerve failure” value is “particularly excellent effects of protecting optic nerve failure”. For the same compound, in data set [1] (setting [5]), the “Emax (maximum difference in ocular tension, treated eye vs eye drop base eye)” value is on record as −4.3 mmHg and the “AUC (area under the curve of time versus change in difference in ocular tension, treated eye vs eye drop base eye)” value is −1303.1 mmHg · min. For the same compound, the “effects of promoting vasodilatation and blood flow in the retina” value in the data set with blood flow in the retina was “particularly excellent effects of promoting vasodilatation and blood flow in the retina”. Further, the solubility – broadly, how much of the substance goes into solution per volume – at 6 h in data set [2] is 16600 µg/mL (≈ 44600 µM).

For `Nc1nc(C#CC2CCCC2)nc2c1ncn2[C@@H]1O[C@H](CO)[C@@H](O)[C@H]1O` [Referential Compound 3, 2-cyclopentylethynyladenosine], in data set [3], the Saturation solubility was 1400 µg/mL. In data set [1] (setting [5]), the “Emax (maximum difference in ocular tension, treated eye vs eye drop base eye)” value is −4.4 mmHg and the “AUC (area under the curve of time versus change in difference in ocular tension, treated eye vs eye drop base eye)” value is recorded as −1532.7 mmHg · min.

For `N#CCCCC#Cc1nc(N)c2ncn([C@@H]3O[C@H](CO)[C@@H](O)[C@H]3O)c2n1` [Referential Compound 1, 2-(5-cyano-1-pentyn-1-yl)adenosine], in data set [1] (setting [5]), the “Emax (maximum difference in ocular tension, treated eye vs eye drop base eye)” value is −3.0 mmHg and the “AUC (area under the curve of time versus change in difference in ocular tension, treated eye vs eye drop base eye)” value was −584.0 mmHg · min.

With `N#CCCCCC#Cc1nc(N)c2ncn([C@@H]3O[C@H](COP(=O)([O-])[O-])[C@@H](O)[C@H]3O)c2n1.[Na+].[Na+]` [Compound 2, disodium 2-(6-cyano-1-hexyn-1-yl)adenosine 5′-monophosphate], in data set [1] (setting [5]), the “Emax (maximum difference in ocular tension, treated eye vs eye drop base eye)” value is recorded as −6.0 mmHg and the “AUC (area under the curve of time versus change in difference in ocular tension, treated eye vs eye drop base eye)” value is given as −1965.0 mmHg · min. Also, in data set [2], the solubility at 6 h is over 200000 µg/mL.

With `CCCCCCC#Cc1nc(N)c2ncn([C@@H]3O[C@H](CO)[C@@H](O)[C@H]3O)c2n1` [Referential Compound 4, 2-(1-octyn-1-yl)adenosine], in data set [1] (setting [4]), the “Emax (maximum difference in ocular tension, treated eye vs eye drop base eye)” value is given as −4.2 mmHg and the “AUC (area under the curve of time versus change in difference in ocular tension, treated eye vs eye drop base eye)” value was −1093.5 mmHg · min. Besides, the concentration in solution in data set [2] (solubility at 6 h) was 300 µg/mL (≈ 799 µM).

On to `Nc1nc(C#CCCCCN2C(=O)c3ccccc3C2=O)nc2c1ncn2[C@@H]1O[C@H](CO)[C@@H](O)[C@H]1O` [Referential Compound 5, 2-(6-phthalimidyl-1-hexyn-1-yl)adenosine], for which, in data set [1] (setting [4]), the “Emax (maximum difference in ocular tension, treated eye vs eye drop base eye)” value is listed as −6.3 mmHg and the “AUC (area under the curve of time versus change in difference in ocular tension, treated eye vs eye drop base eye)” value is given as −1471.0 mmHg · min. Besides, in data set [2], the concentration in solution (solubility at 6 h) came to 700 µg/mL (≈ 1420 µM).

The values are drawn from patent publication US7132409B2, “Adenosine derivatives and use thereof” (Toa Eiyo Ltd., priority 2000, dated 2006).
